Measurements published in patent US20090304692A1, “TRIAZINE COMPOUNDS AS PI3 KINASE AND MTOR INHIBITORS” (Wyeth, priority 2008, published 2009).
Where two headings read alike, the source gives them in different places.

Legend:
[1] = target: Human mTOR (FLAG-TOR) (Homo sapiens, UniProt P42345); experiment: mTOR kinase assay (DELFIA format, purified enzyme); type: biochemical; conditions: read-out: IC50 mTOR
[2] = target: PI3K-γ (Homo sapiens, UniProt P48736); experiment: PI3K-gamma fluorescence polarization assay; conditions: read-out: IC50 PI3Kγ
PI3K-γ, sequence (P48736 whole entry, species assumed): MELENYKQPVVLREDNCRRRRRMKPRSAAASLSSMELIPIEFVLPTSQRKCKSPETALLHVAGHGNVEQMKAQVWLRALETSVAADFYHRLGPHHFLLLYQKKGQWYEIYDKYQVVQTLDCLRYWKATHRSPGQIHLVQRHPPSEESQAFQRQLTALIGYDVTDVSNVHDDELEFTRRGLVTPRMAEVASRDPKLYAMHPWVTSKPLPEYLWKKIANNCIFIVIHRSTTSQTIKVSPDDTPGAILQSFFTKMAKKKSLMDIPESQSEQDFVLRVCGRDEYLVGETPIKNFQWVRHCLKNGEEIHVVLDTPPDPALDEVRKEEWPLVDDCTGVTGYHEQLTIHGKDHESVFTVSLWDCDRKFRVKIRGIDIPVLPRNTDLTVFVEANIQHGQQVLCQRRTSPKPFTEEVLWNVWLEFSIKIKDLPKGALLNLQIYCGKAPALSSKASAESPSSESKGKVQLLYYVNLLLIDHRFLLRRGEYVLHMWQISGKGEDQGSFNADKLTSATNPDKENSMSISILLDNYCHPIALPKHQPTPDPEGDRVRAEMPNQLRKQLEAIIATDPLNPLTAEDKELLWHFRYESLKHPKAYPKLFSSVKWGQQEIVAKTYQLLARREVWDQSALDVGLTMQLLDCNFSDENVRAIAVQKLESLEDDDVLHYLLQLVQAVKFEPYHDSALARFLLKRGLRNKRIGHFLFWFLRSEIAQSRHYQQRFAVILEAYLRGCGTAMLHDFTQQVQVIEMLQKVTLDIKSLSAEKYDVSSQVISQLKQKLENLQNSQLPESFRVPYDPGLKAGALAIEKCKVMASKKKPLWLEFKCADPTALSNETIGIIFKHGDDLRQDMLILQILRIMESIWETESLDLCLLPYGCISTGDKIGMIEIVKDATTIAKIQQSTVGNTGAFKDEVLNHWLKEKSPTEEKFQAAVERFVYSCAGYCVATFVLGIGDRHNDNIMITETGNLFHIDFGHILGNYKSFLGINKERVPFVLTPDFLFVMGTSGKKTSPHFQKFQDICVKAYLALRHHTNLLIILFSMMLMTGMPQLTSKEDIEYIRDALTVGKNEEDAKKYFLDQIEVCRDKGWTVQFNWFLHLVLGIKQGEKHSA

[3] = tested on: human prostate PC3-mm2 tumor cell line; experiment: In vitro cell culture growth assay (MTS), PC3-mm2; type: cell-based; conditions: Homo sapiens, PC3MM2, 72 h, MTS cell growth assay, three days after drug treatment, PC3-mm2 cells; read-out: IC50 PC3-mm2
[4] = target: PI3K-α (Homo sapiens, UniProt P42336); experiment: PI3K-alpha fluorescence polarization assay; conditions: read-out: IC50 PI3Kα
PI3K-α, sequence (P42336 whole entry, species assumed): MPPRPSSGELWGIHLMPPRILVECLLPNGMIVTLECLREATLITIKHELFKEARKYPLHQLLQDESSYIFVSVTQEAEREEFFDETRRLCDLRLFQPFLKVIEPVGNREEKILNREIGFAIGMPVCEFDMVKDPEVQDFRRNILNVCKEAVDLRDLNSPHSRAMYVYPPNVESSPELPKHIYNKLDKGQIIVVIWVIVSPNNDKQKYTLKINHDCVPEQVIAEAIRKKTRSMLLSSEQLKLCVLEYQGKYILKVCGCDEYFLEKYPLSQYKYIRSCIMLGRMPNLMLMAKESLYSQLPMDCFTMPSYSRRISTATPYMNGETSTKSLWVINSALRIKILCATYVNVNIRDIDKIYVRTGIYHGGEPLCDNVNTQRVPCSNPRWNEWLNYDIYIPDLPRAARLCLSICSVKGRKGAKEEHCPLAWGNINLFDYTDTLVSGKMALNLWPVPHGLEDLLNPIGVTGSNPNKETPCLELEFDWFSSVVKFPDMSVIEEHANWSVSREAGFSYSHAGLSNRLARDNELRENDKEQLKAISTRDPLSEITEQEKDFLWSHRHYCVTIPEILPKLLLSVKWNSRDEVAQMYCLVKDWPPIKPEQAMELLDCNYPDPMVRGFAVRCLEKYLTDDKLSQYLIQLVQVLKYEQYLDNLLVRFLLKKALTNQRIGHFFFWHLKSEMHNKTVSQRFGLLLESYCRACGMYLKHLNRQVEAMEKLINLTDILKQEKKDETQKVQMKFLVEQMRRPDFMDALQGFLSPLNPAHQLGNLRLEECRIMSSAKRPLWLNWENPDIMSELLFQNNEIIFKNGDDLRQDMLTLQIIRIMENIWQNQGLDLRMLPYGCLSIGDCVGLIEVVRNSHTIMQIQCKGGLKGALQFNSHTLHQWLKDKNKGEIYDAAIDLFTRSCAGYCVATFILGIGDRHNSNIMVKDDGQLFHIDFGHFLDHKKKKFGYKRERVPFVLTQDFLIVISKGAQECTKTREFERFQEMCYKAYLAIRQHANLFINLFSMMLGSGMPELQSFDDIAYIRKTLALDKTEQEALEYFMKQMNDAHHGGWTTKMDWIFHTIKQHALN
PI3K-α, sequence (P27986 whole entry partner, species assumed): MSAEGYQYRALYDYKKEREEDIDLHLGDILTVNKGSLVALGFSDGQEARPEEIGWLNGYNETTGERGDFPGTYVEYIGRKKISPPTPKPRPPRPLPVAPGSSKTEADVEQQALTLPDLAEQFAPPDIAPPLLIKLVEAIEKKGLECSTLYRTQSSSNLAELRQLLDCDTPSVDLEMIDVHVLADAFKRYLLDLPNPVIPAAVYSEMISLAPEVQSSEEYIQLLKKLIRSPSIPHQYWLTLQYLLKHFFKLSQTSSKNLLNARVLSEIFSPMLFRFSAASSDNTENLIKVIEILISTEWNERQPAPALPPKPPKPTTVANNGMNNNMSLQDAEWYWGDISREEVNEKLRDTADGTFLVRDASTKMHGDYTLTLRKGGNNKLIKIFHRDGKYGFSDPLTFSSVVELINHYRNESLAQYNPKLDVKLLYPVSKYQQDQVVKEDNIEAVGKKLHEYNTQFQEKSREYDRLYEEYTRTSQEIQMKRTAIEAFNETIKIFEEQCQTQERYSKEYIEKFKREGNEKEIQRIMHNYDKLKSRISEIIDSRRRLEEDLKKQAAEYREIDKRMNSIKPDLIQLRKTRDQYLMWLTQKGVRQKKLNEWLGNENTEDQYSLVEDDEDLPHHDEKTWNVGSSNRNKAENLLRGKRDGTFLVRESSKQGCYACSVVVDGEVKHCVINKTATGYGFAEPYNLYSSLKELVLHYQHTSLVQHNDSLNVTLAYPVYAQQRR

[5] = tested on: human breast MDA-MB-361 tumor cell line; experiment: In vitro cell culture growth assay (MTS), MDA-MB-361; type: cell-based; conditions: Homo sapiens, MTS cell growth assay, three days after drug treatment, MDA-MB-361 cells, read-out: IC50 MDA-MB-361

Human mTOR (FLAG-TOR), sequence (P42345 1360-2549 limits assumed): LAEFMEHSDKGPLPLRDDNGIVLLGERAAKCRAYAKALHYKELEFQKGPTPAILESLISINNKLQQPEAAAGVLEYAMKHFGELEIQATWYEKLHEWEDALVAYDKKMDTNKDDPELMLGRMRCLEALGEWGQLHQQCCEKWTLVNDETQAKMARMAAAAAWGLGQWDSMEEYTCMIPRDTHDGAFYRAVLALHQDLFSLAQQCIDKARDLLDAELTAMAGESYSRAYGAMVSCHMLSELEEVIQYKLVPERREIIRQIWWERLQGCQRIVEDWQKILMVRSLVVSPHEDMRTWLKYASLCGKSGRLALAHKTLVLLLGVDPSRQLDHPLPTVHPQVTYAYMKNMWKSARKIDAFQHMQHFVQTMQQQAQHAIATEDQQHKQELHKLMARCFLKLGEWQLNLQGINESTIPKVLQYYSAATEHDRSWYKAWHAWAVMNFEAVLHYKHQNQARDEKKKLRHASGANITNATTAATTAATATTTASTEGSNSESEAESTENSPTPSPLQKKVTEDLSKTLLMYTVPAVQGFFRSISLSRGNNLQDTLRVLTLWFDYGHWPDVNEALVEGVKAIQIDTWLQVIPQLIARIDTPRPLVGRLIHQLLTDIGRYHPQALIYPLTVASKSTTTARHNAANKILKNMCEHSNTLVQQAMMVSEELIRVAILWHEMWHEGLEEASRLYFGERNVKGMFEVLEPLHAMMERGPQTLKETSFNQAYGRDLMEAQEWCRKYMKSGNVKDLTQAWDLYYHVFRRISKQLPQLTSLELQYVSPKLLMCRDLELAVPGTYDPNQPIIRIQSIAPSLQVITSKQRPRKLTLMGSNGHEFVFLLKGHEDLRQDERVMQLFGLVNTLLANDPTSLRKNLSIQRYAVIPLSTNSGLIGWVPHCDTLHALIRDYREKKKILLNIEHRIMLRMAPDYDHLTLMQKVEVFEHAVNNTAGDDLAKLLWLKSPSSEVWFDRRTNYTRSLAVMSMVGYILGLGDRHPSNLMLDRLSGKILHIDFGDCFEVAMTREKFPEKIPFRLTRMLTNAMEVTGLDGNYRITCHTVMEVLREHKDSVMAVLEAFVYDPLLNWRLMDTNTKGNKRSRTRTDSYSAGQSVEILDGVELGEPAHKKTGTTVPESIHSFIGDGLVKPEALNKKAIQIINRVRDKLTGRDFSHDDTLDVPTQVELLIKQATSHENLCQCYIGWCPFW

SMILES	IC50 [1]	IC50 [2]	IC50 [3]	IC50 [4]	IC50 ([5]; 72 h)	IC50 ([5]; MDA-MB-361, 72 h)
O=C(Nc1ccc(C(=O)NCCN2CCCCC2)cc1)Nc1ccc(-c2nc(N3CCOCC3)nc(N3C4CCC3COC4)n2)cc1 [Example 759, 4-[({4-[4-morpholin-4-yl-6-(3-oxa-8-azabicyclo[3.2.1]oct-8-yl)-1,3,5-triazin-2-yl]phenyl}carbamoyl)amino]-N-(2-piperidin-1-ylethyl)benzamide]	0.16 nM	38 nM	10 nM	2 nM	1 nM	–
O=C(Nc1ccc(C(=O)N2CCC(N3CCCC3)CC2)cc1)Nc1ccc(-c2nc(N3CCOCC3)nc(N3C4CCC3COC4)n2)cc1 [Example 761, 1-{4-[4-morpholin-4-yl-6-(3-oxa-8-azabicyclo[3.2.1]oct-8-yl)-1,3,5-triazin-2-yl]phenyl}-3-{4-[(4-pyrrolidin-1-ylpiperidin-1-yl)carbonyl]phenyl}urea]	0.12 nM	19 nM	4 nM	2 nM	–	< 3 nM
O=C(Nc1ccc(C(=O)N2CCSCC2)cc1)Nc1ccc(-c2nc(N3CCOCC3)nc(N3C4CCC3COC4)n2)cc1 [Example 762, 1-{4-[4-morpholin-4-yl-6-(3-oxa-8-azabicyclo[3.2.1]oct-8-yl)-1,3,5-triazin-2-yl]phenyl}-3-[4-(thiomorpholin-4-ylcarbonyl)phenyl]urea]	0.428 nM	19.7 nM	7 nM	2.7 nM	–	8 nM
O=C(Nc1ccc(C(=O)N2CCOCC2)cc1)Nc1ccc(-c2nc(N3CCOCC3)nc(N3C4CCC3COC4)n2)cc1 [Example 763, 1-[4-(morpholin-4-ylcarbonyl)phenyl]-3-{4-[4-morpholin-4-yl-6-(3-oxa-8-azabicyclo[3.2.1]oct-8-yl)-1,3,5-triazin-2-yl]phenyl}urea]	0.445 nM	24 nM	7 nM	3 nM	–	4 nM
O=C(Nc1ccc(C(=O)O)cc1)Nc1ccc(-c2nc(N3CCOCC3)nc(N3C4CCC3COC4)n2)cc1 [Example 764, 4-[({4-[4-morpholin-4-yl-6-(3-oxa-8-azabicyclo[3.2.1]oct-8-yl)-1,3,5-triazin-2-yl]phenyl}carbamoyl)amino]benzoic acid]	0.21 nM	67.5 nM	678 nM	8.5 nM	–	628 nM
O=C(Nc1ccncc1)Nc1ccc(-c2nc(N3CCOCC3)nc(N3C4COCC3COC4)n2)cc1 [Example 765, 1-{4-[4-(3,7-dioxa-9-azabicyclo[3.3.1]non-9-yl)-6-morpholin-4-yl-1,3,5-triazin-2-yl]phenyl}-3-pyridin-4-ylurea]	0.195 nM	78.5 nM	27 nM	8.5 nM	21 nM	–
CN1CCN(c2ccc(NC(=O)Nc3ccc(-c4nc(N5CCOCC5)nc(N5C6CCC5COC6)n4)cc3)cn2)CC1 [Example 766, 1-[6-(4-methylpiperazin-1-yl)pyridin-3-yl]-3-{4-[4-morpholin-4-yl-6-(3-oxa-8-azabicyclo[3.2.1]oct-8-yl)-1,3,5-triazin-2-yl]phenyl}urea]	1.31 nM	85.5 nM	50 nM	24 nM	26 nM	–
CN(C)C1CCN(C(=O)c2ccc(NC(=O)Nc3ccc(-c4nc(N5CCOCC5)nc(N5C6COCC5COC6)n4)cc3)cc2)CC1 [Example 767, 1-(4-{[4-(dimethylamino)piperidin-1-yl]carbonyl}phenyl)-3-{4-[4-(3,7-dioxa-9-azabicyclo[3.3.1]non-9-yl)-6-morpholin-4-yl-1,3,5-triazin-2-yl]phenyl}urea]	0.2 nM	17 nM	13 nM	2.1 nM	–	5 nM
CN(C)CCN(C)C(=O)c1ccc(NC(=O)Nc2ccc(-c3nc(N4CCOCC4)nc(N4C5COCC4COC5)n3)cc2)cc1 [Example 768, N-[2-(dimethylamino)ethyl]-4-[({4-[4-(3,7-dioxa-9-azabicyclo[3.3.1]non-9-yl)-6-morpholin-4-yl-1,3,5-triazin-2-yl]phenyl}carbamoyl)amino]-N-methylbenzamide]	0.115 nM	18.5 nM	8 nM	1.2 nM	7 nM	–
CN1CCN(C(=O)c2ccc(NC(=O)Nc3ccc(-c4nc(N5CCOCC5)nc(N5C6COCC5COC6)n4)cc3)cc2)CC1 [Example 769, 1-{4-[4-(3,7-dioxa-9-azabicyclo[3.3.1]non-9-yl)-6-morpholin-4-yl-1,3,5-triazin-2-yl]phenyl}-3-{4-[(4-methylpiperazin-1-yl)carbonyl]phenyl}urea]	0.23 nM	17.5 nM	14 nM	2.1 nM	–	6 nM
COC(=O)c1ccc(NC(=O)Nc2ccc(-c3nc(N4CCOCC4)nc(N4C5COCC4COC5)n3)cc2)cc1 [Example 770, methyl 4-[({4-[4-(3,7-dioxa-9-azabicyclo[3.3.1]non-9-yl)-6-morpholin-4-yl-1,3,5-triazin-2-yl]phenyl}carbamoyl)amino]benzoate]	0.27 nM	99 nM	25 nM	30.5 nM	40 nM	–
O=C(Nc1ccc(C(=O)O)cc1)Nc1ccc(-c2nc(N3CCOCC3)nc(N3C4COCC3COC4)n2)cc1 [Example 771, 4-[({4-[4-(3,7-dioxa-9-azabicyclo[3.3.1]non-9-yl)-6-morpholin-4-yl-1,3,5-triazin-2-yl]phenyl}carbamoyl)amino]benzoic acid]	0.215 nM	66 nM	> 1000 nM	19.5 nM	> 1000 nM	–
O=C(Nc1ccc(C(=O)N2CCNCC2)cc1)Nc1ccc(-c2nc(N3CCOCC3)nc(N3C4COCC3COC4)n2)cc1 [Example 772, 1-{4-[4-(3,7-dioxa-9-azabicyclo[3.3.1]non-9-yl)-6-morpholin-4-yl-1,3,5-triazin-2-yl]phenyl}-3-[4-(piperazin-1-ylcarbonyl)phenyl]urea]	0.29 nM	9.5 nM	15 nM	0.8 nM	–	5 nM
CC(C)N1CCN(C(=O)c2ccc(NC(=O)Nc3ccc(-c4nc(N5CCOCC5)nc(N5C6COCC5COC6)n4)cc3)cc2)CC1 [Example 773, 1-{4-[4-(3,7-dioxa-9-azabicyclo[3.3.1]non-9-yl)-6-morpholin-4-yl-1,3,5-triazin-2-yl]phenyl}-3-{4-[(4-isopropylpiperazin-1-yl)carbonyl]phenyl}urea]	0.305 nM	36.5 nM	6 nM	3 nM	–	4 nM
O=C(Nc1ccc(C(=O)NCCN2CCCC2)cc1)Nc1ccc(-c2nc(N3CCOCC3)nc(N3C4COCC3COC4)n2)cc1 [Example 774, 4-[({4-[4-(3,7-dioxa-9-azabicyclo[3.3.1]non-9-yl)-6-morpholin-4-yl-1,3,5-triazin-2-yl]phenyl}carbamoyl)amino]-N-(2-pyrrolidin-1-ylethyl)benzamide]	0.23 nM	41.5 nM	19 nM	2 nM	14 nM	–
O=C(Nc1ccc(C(=O)NCCN2CCCCC2)cc1)Nc1ccc(-c2nc(N3CCOCC3)nc(N3C4COCC3COC4)n2)cc1 [Example 775, 4-[({4-[4-(3,7-dioxa-9-azabicyclo[3.3.1]non-9-yl)-6-morpholin-4-yl-1,3,5-triazin-2-yl]phenyl}carbamoyl)amino]-N-(2-piperidin-1-ylethyl)benzamide]	0.23 nM	46.5 nM	7 nM	2.5 nM	5 nM	–
O=C(Nc1ccc(C(=O)N2CCC(N3CCCC3)CC2)cc1)Nc1ccc(-c2nc(N3CCOCC3)nc(N3C4COCC3COC4)n2)cc1 [Example 776, 1-{4-[4-(3,7-dioxa-9-azabicyclo[3.3.1]non-9-yl)-6-morpholin-4-yl-1,3,5-triazin-2-yl]phenyl}-3-{4-[(4-pyrrolidin-1-ylpiperidin-1-yl)carbonyl]phenyl}urea]	0.345 nM	29.5 nM	6 nM	3 nM	–	< 3.2 nM
O=C(Nc1ccc(C(=O)N2CCC(N3CCCCC3)CC2)cc1)Nc1ccc(-c2nc(N3CCOCC3)nc(N3C4COCC3COC4)n2)cc1 [Example 777, 1-[4-(1,4′-bipiperidin-1′-ylcarbonyl)phenyl]-3-{4-[4-(3,7-dioxa-9-azabicyclo[3.3.1]non-9-yl)-6-morpholin-4-yl-1,3,5-triazin-2-yl]phenyl}urea]	0.265 nM	39 nM	4 nM	4 nM	–	2 nM
O=C(Nc1ccc(C(=O)NCCc2ccccn2)cc1)Nc1ccc(-c2nc(N3CCOCC3)nc(N3C4COCC3COC4)n2)cc1 [Example 778, 4-[({4-[4-(3,7-dioxa-9-azabicyclo[3.3.1]non-9-yl)-6-morpholin-4-yl-1,3,5-triazin-2-yl]phenyl}carbamoyl)amino]-N-(2-pyridin-2-ylethyl)benzamide]	0.28 nM	126 nM	29 nM	11.5 nM	17 nM	–
O=C(Nc1ccc(C(=O)NCCc2ccncc2)cc1)Nc1ccc(-c2nc(N3CCOCC3)nc(N3C4COCC3COC4)n2)cc1 [Example 779, 4-[({4-[4-(3,7-dioxa-9-azabicyclo[3.3.1]non-9-yl)-6-morpholin-4-yl-1,3,5-triazin-2-yl]phenyl}carbamoyl)amino]-N-(2-pyridin-4-ylethyl)benzamide]	0.23 nM	49.7 nM	23 nM	4.2 nM	13 nM	–
